In patent US20220081412A1, “QUINOLINYL-PYRAZINE-CARBOXAMIDE COMPOUNDS AND USES THEREOF” (The Regents of the University of Michigan, priority 2018, published 2022):

Test system: NCI60 cell lines
Assay: NCI60 cell line panel
Assay type: cell-based, human
Protocol: The Developmental Therapeutics Program (DTP) of NCI has evaluated more than 100,000 pure compounds and more than 34,000 crude extracts against the panel of human tumor cell lines. The resultant data are analyzed using a program called COMPARE, that rank the entire database of tested compounds in the order of the similarity of the responses. […] Thus, the NCI60 databases is highly useful to the cancer research community. Further experiments were conducted that tested some of the active compounds in a panel of NCI60 cell line to relate our compounds with some known inhibitors to have an idea of possible mechanism of action.
In order to understand the selectivity of these compounds in different cancer types, some of them were tested against a panel of 60 cell lines (Table XXXIX).

SMILES: CCN(CC)CCCC(C)Nc1cnc(C(=O)Nc2cc(C)cc3cccnc23)cn1 (centres unmarked) [J4, 5-((5-(diethylamino)pentan-2-yl)amino)-N-(6-methylquinolin-8-yl)pyrazine-2-carboxamide]
- GIPRCNT: % Growth inhibition (Breast Cancer, BT-549): 93.26%
- GIPRCNT: % Growth inhibition (Breast Cancer, HS 578T): 79.89%
- GIPRCNT: % Growth inhibition (Breast Cancer, MCF7): 57.27%
- GIPRCNT: % Growth inhibition (Breast Cancer, MDA-MB-231/ATCC): 89.17%
- GIPRCNT: % Growth inhibition (Breast Cancer, MDA-MB-468): 9.358%
- GIPRCNT: % Growth inhibition (Breast Cancer, T-47D): 32.641%
- GIPRCNT: % Growth inhibition (CNS Cancer, SF-268): 66.12%
- GIPRCNT: % Growth inhibition (CNS Cancer, SF-295): 98.94%
- GIPRCNT: % Growth inhibition (CNS Cancer, SF-539): 86.87%
- GIPRCNT: % Growth inhibition (CNS Cancer, SNB-19): 89.24%
- GIPRCNT: % Growth inhibition (CNS Cancer, SNB-75): 78.26%
- GIPRCNT: % Growth inhibition (CNS Cancer, U251): 78.39%
- GIPRCNT: % Growth inhibition (Colon Cancer, COLO 205): 37.0068%
- GIPRCNT: % Growth inhibition (Colon Cancer, HCC-2998): 89.8%
- GIPRCNT: % Growth inhibition (Colon Cancer, HCT-15): 59.89%
- GIPRCNT: % Growth inhibition (Colon Cancer, HCT-116): 18.05%
- GIPRCNT: % Growth inhibition (Colon Cancer, HT29): 37.31%
- GIPRCNT: % Growth inhibition (Colon Cancer, KM12): 97.9%
- GIPRCNT: % Growth inhibition (Colon Cancer, SW-620): 75.26%
- GIPRCNT: % Growth inhibition (Leukemia, CCRF-CEM): 54.24%
- GIPRCNT: % Growth inhibition (Leukemia, HL-60(TB)): 76.8%
- GIPRCNT: % Growth inhibition (Leukemia, K-562): 25.88%
- GIPRCNT: % Growth inhibition (Leukemia, MOLT-4): 46.46%
- GIPRCNT: % Growth inhibition (Leukemia, RPMI-8226): 77.97%
- GIPRCNT: % Growth inhibition (Leukemia, SR): 81.88%
- GIPRCNT: % Growth inhibition (Melanoma, LOX IMVI): 87%
- GIPRCNT: % Growth inhibition (Melanoma, M14): 98.61%
- GIPRCNT: % Growth inhibition (Melanoma, MALME-3M): 107.0521%
- GIPRCNT: % Growth inhibition (Melanoma, MDA-MB-435): 83.68%
- GIPRCNT: % Growth inhibition (Melanoma, SK-MEL-2): 104.3875%
- GIPRCNT: % Growth inhibition (Melanoma, SK-MEL-5): 83.12%
- GIPRCNT: % Growth inhibition (Melanoma, UACC-62): 98.62%
- GIPRCNT: % Growth inhibition (Melanoma, UACC-257): 71.75%
- GIPRCNT: % Growth inhibition (Non-Small Cell Lung Cancer, A549/ATCC): 72.8%
- GIPRCNT: % Growth inhibition (Non-Small Cell Lung Cancer, EKVX): 77.77%
- GIPRCNT: % Growth inhibition (Non-Small Cell Lung Cancer, HOP-62): 91.15%
- GIPRCNT: % Growth inhibition (Non-Small Cell Lung Cancer, HOP-92): 51.4%
- GIPRCNT: % Growth inhibition (Non-Small Cell Lung Cancer, NCI-H23): 96.3%
- GIPRCNT: % Growth inhibition (Non-Small Cell Lung Cancer, NCI-H226): 60.39%
- GIPRCNT: % Growth inhibition (Non-Small Cell Lung Cancer, NCI-H322M): 84.18%
- GIPRCNT: % Growth inhibition (Non-Small Cell Lung Cancer, NCI-H460): 79.5%
- GIPRCNT: % Growth inhibition (Non-Small Cell Lung Cancer, NCI-H522): 96.8365%
- GIPRCNT: % Growth inhibition (Ovarian Cancer, IGROV1): 68.68%
- GIPRCNT: % Growth inhibition (Ovarian Cancer, NCI/ADR-RES): 92.67%
- GIPRCNT: % Growth inhibition (Ovarian Cancer, OVCAR-3): 20.46%
- GIPRCNT: % Growth inhibition (Ovarian Cancer, OVCAR-4): 58.85%
- GIPRCNT: % Growth inhibition (Ovarian Cancer, OVCAR-5): 97.58%
- GIPRCNT: % Growth inhibition (Ovarian Cancer, OVCAR-8): 86.9118%
- GIPRCNT: % Growth inhibition (Ovarian Cancer, SK-OV-3): 103.7568%
- GIPRCNT: % Growth inhibition (Prostate Cancer, DU-145): 80.68%
- GIPRCNT: % Growth inhibition (Prostate Cancer, PC-3): 83.08%
- GIPRCNT: % Growth inhibition (Renal Cancer, 786-0): 88.22%
- GIPRCNT: % Growth inhibition (Renal Cancer, A498): 70.33%
- GIPRCNT: % Growth inhibition (Renal Cancer, ACHN): 77.87%
- GIPRCNT: % Growth inhibition (Renal Cancer, CAKI-1): 93.45%
- GIPRCNT: % Growth inhibition (Renal Cancer, RXF 393): 72.29%
- GIPRCNT: % Growth inhibition (Renal Cancer, SN12C): 77.92%
- GIPRCNT: % Growth inhibition (Renal Cancer, TK-10): 86.86%
- GIPRCNT: % Growth inhibition (Renal Cancer, UO-31): 63.33%
